Measurements: patent US7396837B2, “Antitumoral analogs of lamellarins” (Pharma Mar, S.A.U., priority 2002, dated 2008)
Read-outs that look alike come from different tables or passages of the source.

Key:
DU-145 = assay: SRB colorimetric cell growth inhibition assay, DU-145; assay type: cell-based; conditions: Homo sapiens; for GI50: GI=growth inhibition, read-out: GI50 DU-145; for CC50: cell killing (cytotoxic effect), read-out: LC50 DU-145; for IC (TGI): total growth inhibition (cytostatic effect), read-out: TGI DU-145
Outline: (§1)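 Human tumour cells continuously exposed to compound in 96-well culture; growth and viability quantified colorimetrically by sulforhodamine B staining. Mean ± SD from triplicate wells; GI (growth inhibition), TGI (total growth inhibition, cytostatic) and LC (cell killing, cytotoxic) parameters derived.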

IGROV-ET = assay: SRB colorimetric cell growth inhibition assay, IGROV-ET (ET-743 resistant); assay type: cell-based; conditions: Homo sapiens, IGROV-ET; for GI50: GI=growth inhibition, read-out: GI50 IGROV-ET; for CC50: cell killing (cytotoxic effect), read-out: LC50 IGROV-ET; for IC (TGI): total growth inhibition (cytostatic effect), read-out: TGI IGROV-ET
Outline: as §1

PANC-1 = assay: SRB colorimetric cell growth inhibition assay, PANC-1; assay type: cell-based; conditions: Homo sapiens; for GI50: GI=growth inhibition, read-out: GI50 PANC-1; for CC50: cell killing (cytotoxic effect), read-out: LC50 PANC-1; for IC (TGI): total growth inhibition (cytostatic effect), read-out: TGI PANC-1
Outline: as §1

K-562 = assay: SRB colorimetric cell growth inhibition assay, K-562; assay type: cell-based; conditions: Homo sapiens, K562, K-562; for GI50: GI=growth inhibition, read-out: GI50 K-562; for CC50: cell killing (cytotoxic effect), read-out: LC50 K-562; for IC (TGI): total growth inhibition (cytostatic effect), read-out: TGI K-562
Outline: as §1

A-549 = assay: SRB colorimetric cell growth inhibition assay, A-549; assay type: cell-based; conditions: Homo sapiens, A549, A-549; for GI50: GI=growth inhibition, read-out: GI50 A-549; for CC50: cell killing (cytotoxic effect), read-out: LC50 A-549; for IC (TGI): total growth inhibition (cytostatic effect), read-out: TGI A-549
Outline: as §1

human topoisomerase I = target: T1, human topoisomerase I (Homo sapiens, UniProt P11387); assay: Topoisomerase I DNA relaxation assay (supercoiled plasmid DNA); assay type: biochemical; conditions: supercoiled plasmid DNA, each compound tested at 1 μM, agarose gel with ethidium bromide
T1 sequence (P11387 1-765): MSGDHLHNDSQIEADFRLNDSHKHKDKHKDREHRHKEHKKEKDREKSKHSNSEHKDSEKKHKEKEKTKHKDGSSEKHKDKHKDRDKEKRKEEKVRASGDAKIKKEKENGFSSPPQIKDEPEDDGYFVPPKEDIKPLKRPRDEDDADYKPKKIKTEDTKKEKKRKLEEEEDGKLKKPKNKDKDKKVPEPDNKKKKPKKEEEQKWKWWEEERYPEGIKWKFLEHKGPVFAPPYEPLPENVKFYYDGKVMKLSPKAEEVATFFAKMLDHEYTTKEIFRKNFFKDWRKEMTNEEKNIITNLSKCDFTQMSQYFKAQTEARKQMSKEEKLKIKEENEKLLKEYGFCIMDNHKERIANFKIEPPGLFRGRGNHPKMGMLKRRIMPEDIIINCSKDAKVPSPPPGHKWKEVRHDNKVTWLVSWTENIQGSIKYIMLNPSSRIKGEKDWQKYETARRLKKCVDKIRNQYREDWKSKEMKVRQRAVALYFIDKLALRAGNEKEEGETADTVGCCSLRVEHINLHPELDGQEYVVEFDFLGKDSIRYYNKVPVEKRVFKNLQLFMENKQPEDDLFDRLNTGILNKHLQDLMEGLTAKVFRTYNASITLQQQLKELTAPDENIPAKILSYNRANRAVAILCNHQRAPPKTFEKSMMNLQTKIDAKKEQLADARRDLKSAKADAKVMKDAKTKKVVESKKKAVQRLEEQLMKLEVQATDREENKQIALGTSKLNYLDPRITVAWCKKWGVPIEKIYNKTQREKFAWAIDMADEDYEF
Outline: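 Supercoiled plasmid DNA was relaxed by human topoisomerase I with or without test compound at 1 μM. Products were resolved by agarose gel electrophoresis with ethidium bromide staining.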

IGROV = assay: SRB colorimetric cell growth inhibition assay, IGROV; assay type: cell-based
Outline: as §1

SK-MEL-28 = assay: SRB colorimetric cell growth inhibition assay, SK-MEL-28; assay type: cell-based; conditions: Homo sapiens, SK-MEL-28, MEL-28; for GI50: GI=growth inhibition, read-out: GI50 MEL-28; for CC50: cell killing (cytotoxic effect), read-out: LC50 MEL-28; for IC (TGI): total growth inhibition (cytostatic effect), read-out: TGI MEL-28
Outline: as §1

LoVo-Dox = assay: SRB colorimetric cell growth inhibition assay, LoVo-Dox (MDR); assay type: cell-based; conditions: Homo sapiens, LOVO-DOX; for GI50: GI=growth inhibition, read-out: GI50 LOVO-DOX; for CC50: cell killing (cytotoxic effect), read-out: LC50 LOVO-DOX; for IC (TGI): total growth inhibition (cytostatic effect), read-out: TGI LOVO-DOX
Outline: as §1

HT-29 = assay: SRB colorimetric cell growth inhibition assay, HT-29; assay type: cell-based; conditions: Homo sapiens; for GI50: GI=growth inhibition, read-out: GI50 HT-29; for CC50: cell killing (cytotoxic effect), read-out: LC50 HT-29; for IC (TGI): total growth inhibition (cytostatic effect), read-out: TGI HT-29
Outline: as §1

LoVo = assay: SRB colorimetric cell growth inhibition assay, LoVo; assay type: cell-based; conditions: Homo sapiens; for GI50: GI=growth inhibition, read-out: GI50 LOVO; for CC50: cell killing (cytotoxic effect), read-out: LC50 LOVO; for IC (TGI): total growth inhibition (cytostatic effect), read-out: TGI LOVO
Outline: as §1

LNCaP = assay: SRB colorimetric cell growth inhibition assay, LNCaP; assay type: cell-based; conditions: Homo sapiens, LNCaP, LN-caP; for GI50: GI=growth inhibition, read-out: GI50 LN-caP; for CC50: cell killing (cytotoxic effect), read-out: LC50 LN-caP; for IC (TGI): total growth inhibition (cytostatic effect), read-out: TGI LN-caP
Outline: as §1

SK-BR-3 = assay: SRB colorimetric cell growth inhibition assay, SK-BR-3; assay type: cell-based; conditions: Homo sapiens; for GI50: GI=growth inhibition, read-out: GI50 SK-BR-3; for CC50: cell killing (cytotoxic effect), read-out: LC50 SK-BR-3; for IC (TGI): total growth inhibition (cytostatic effect), read-out: TGI SK-BR-3
Outline: as §1

[1] = Homo sapiens, IGROV; cell killing (cytotoxic effect); read-out: LC50 IGROV

Structure (SMILES): COc1cc(-c2c3c4cc(OC)c(OC(=O)[C@H](N)C(C)C)cc4oc(=O)c3n3ccc4cc(OC(=O)[C@H](N)C(C)C)c(OC)cc4c23)ccc1OC(=O)[C@H](N)C(C)C [Compound 17]
- GI50 (DU-145; DU-145, DU-145): 0.0487 µM
- CC50 (DU-145; DU-145, DU-145): 2.3 µM
- IC (TGI) (DU-145; DU-145, DU-145): 0.228 µM
- GI50 (IGROV-ET): 0.162 µM
- CC50 (IGROV-ET): 8.78 µM
- IC (TGI) (IGROV-ET): 0.544 µM
- GI50 (PANC-1; PANC-1, PANC-1): 0.206 µM
- CC50 (PANC-1; PANC-1, PANC-1): 8.53 µM
- IC (TGI) (PANC-1; PANC-1, PANC-1): 1.52 µM
- GI50 (K-562): 0.0536 µM
- CC50 (K-562): 2.5 µM
- IC (TGI) (K-562): 0.277 µM
- GI50 (A-549): 0.207 µM
- CC50 (A-549): 8.48 µM
- IC (TGI) (A-549): 0.663 µM
- stimulation of DNA cleavage by topoisomerase I / inhibition of topoisomerase I (nicked DNA band) in DNA relaxation assay (human topoisomerase I): stimulated DNA cleavage by the enzyme
- GI50 (IGROV; Homo sapiens, IGROV; GI=growth inhibition; read-out: GI50 IGROV): 0.105 µM
- CC50 (IGROV; [1]): 4.93 µM
- IC (TGI) (IGROV; Homo sapiens, IGROV; total growth inhibition (cytostatic effect); read-out: TGI IGROV): 0.405 µM
- GI50 (SK-MEL-28): 0.0518 µM
- CC50 (SK-MEL-28): 0.766 µM
- IC (TGI) (SK-MEL-28): 0.171 µM
- GI50 (LoVo-Dox): 0.384 µM
- CC50 (LoVo-Dox): 5.29 µM
- IC (TGI) (LoVo-Dox): 1.33 µM
- GI50 (HT-29; HT-29, HT-29): 0.342 µM
- CC50 (HT-29; HT-29, HT-29): 8.78 µM
- IC (TGI) (HT-29; HT-29, HT-29): 0.686 µM
- GI50 (LoVo; LoVo): 0.216 µM
- CC50 (LoVo; LoVo): 0.816 µM
- IC (TGI) (LoVo; LoVo): 0.42 µM
- GI50 (LNCaP): 0.132 µM
- CC50 (LNCaP): 0.599 µM
- IC (TGI) (LNCaP): 0.281 µM
- GI50 (SK-BR-3; SK-BR-3, SK-BR-3): 0.0803 µM
- CC50 (SK-BR-3; SK-BR-3, SK-BR-3): 1.22 µM
- IC (TGI) (SK-BR-3; SK-BR-3, SK-BR-3): 0.286 µM

Structure (SMILES): COc1cc(-c2c3n(c4c(=O)oc5cc(OC(=O)[C@@H](N)Cc6c[nH]c7ccccc67)c(OC)cc5c24)CCc2cc(OC(=O)[C@@H](N)Cc4c[nH]c5ccccc45)c(OC)cc2-3)ccc1OC(=O)[C@@H](N)Cc1c[nH]c2ccccc12 [Compound 24]
- CC50 (DU-145; DU-145, DU-145): 7.13 µM
- GI50 (DU-145; DU-145): 0.913 µM
- IC (TGI) (DU-145; DU-145): 2.94 µM
- GI50 (IGROV-ET): 1.31 µM
- CC50 (IGROV-ET): 7.13 µM
- IC (TGI) (IGROV-ET): 7.13 µM
- CC50 (PANC-1; PANC-1, PANC-1): 7.13 µM
- IC (TGI) (PANC-1; PANC-1, PANC-1): 6.23 µM
- GI50 (PANC-1; PANC-1): 1.34 µM
- GI50 (K-562): 0.68 µM
- CC50 (K-562): 5.3 µM
- IC (TGI) (K-562): 1.91 µM
- GI50 (A-549): 1.55 µM
- CC50 (A-549): 7.13 µM
- IC (TGI) (A-549): 3.37 µM
- stimulation of DNA cleavage by topoisomerase I / inhibition of topoisomerase I (nicked DNA band) in DNA relaxation assay (human topoisomerase I): inhibit topoisomerase I
- CC50 (IGROV; [1]): 7.13 µM
- GI50 (IGROV; Homo sapiens; IGROV; GI=growth inhibition; read-out: GI50 IGROV): 1.23 µM
- IC (TGI) (IGROV; Homo sapiens; IGROV; total growth inhibition (cytostatic effect); read-out: TGI IGROV): 4.82 µM
- GI50 (SK-MEL-28): 1.38 µM
- CC50 (SK-MEL-28): 5.74 µM
- IC (TGI) (SK-MEL-28): 2.81 µM
- GI50 (LoVo-Dox): 0.891 µM
- CC50 (LoVo-Dox): 7.13 µM
- IC (TGI) (LoVo-Dox): 3.66 µM
- CC50 (HT-29; HT-29, HT-29): 7.13 µM
- GI50 (HT-29; HT-29): 7.13 µM
- IC (TGI) (HT-29; HT-29): 7.13 µM
- CC50 (LoVo; LoVo): 4.28 µM
- GI50 (LoVo; LOVO): 0.749 µM
- IC (TGI) (LoVo; LOVO): 1.78 µM
- GI50 (LNCaP): 0.934 µM
- CC50 (LNCaP): 3.89 µM
- IC (TGI) (LNCaP): 1.91 µM
- CC50 (SK-BR-3; SK-BR-3, SK-BR-3): 5.58 µM
- GI50 (SK-BR-3; SK-BR-3): 0.653 µM
- IC (TGI) (SK-BR-3; SK-BR-3): 1.93 µM
